Assay results: publication PMC11251039, “Harnessing cholesterol uptake of malaria parasites for therapeutic applications” (EMBO Molecular Medicine, 2024)
Values joined by “and” are separate entries in the source; they are usually repeats but may differ in a detail not shown here. Identical values can stand only once.

What was measured:
[1] = system: Toxoplasma gondii tachyzoites (RH strain); test: Toxoplasma growth inhibition assay (tdTomato fluorescence, in HFF cells); format: cell-based; settings: Toxoplasma gondii, HFF, 72 h; read-out: IC50, T. gondii tachyzoite growth inhibition
Protocol: Fluorescence was measured daily with a fluorescence microplate reader for one week, and the background fluorescence from the time 0 reading was subtracted from all other measurements. […]
Toxoplasma Growth Inhibition Assays:
Growth inhibition was investigated as described previously (26). Fluorescent Toxoplasma gondii parasites were inoculated into an optical bottom 96-well plate containing confluent human foreskin fibroblast (HFF) host cells at a density of 2,000 parasites/well, with a serial dilution of each compound, or culture media/DMSO (0.1% v/v) alone. Plates were measured daily with a FluoStar Optima fluorescence plate reader at 540 nm excitation and 590 nm emission for one week, and the background fluorescence from the time 0 reading was subtracted from all other measurements. […]

[2] = system: human hepatoma cells (Huh7); test: Human hepatoma viability assay (CellTiter-Blue); format: cell-based; settings: for Huh7 viability, dose-response data points (Figure 3F): replicate data points, listed as BC9B
Protocol: Huh7 hepatoma viability assays were conducted in the same manner as the P. berghei assays, with metabolic capacity (indicating viability) measured with a fluorescence microplate reader after incubation with CellTiter-Blue® (Promega) for 3 h.
Appendix Fraser/Curtis et al. […]
Human Hepatoma Viability Assays:
The Huh7 hepatoma cell line (ATCC) was maintained under routine culture conditions in Dulbecco's Modified Eagle Medium (DMEM) containing 3.7 g/L NaHCO3 supplemented with 10% foetal bovine serum (FBS), 100 units/mL penicillin, and 100 μg/mL streptomycin at 37 °C in a humidified 5% CO2 incubator.
Viability assays were performed in parallel to the P. berghei growth inhibition. 10,000 Huh7 cells were seeded in 96-well and dark-sided microplates (Greiner Bio One) and cultured at 37°C, 5% CO2 and 80% humidity. The next day, the media was replaced with compounds or solvent controls (DMSO) serially diluted in culture media. Media was partially replaced with new drug dilutions over the following two days. After 48 hours, CellTiter-Blue® (Promega) was added according to the manufacturer’s instructions and incubated for 3 hours. Fluorescence intensity was measured with 530/25 ex and 590/20 em in a Synergy HTX plate reader (Agilent).

[3] = system: P. falciparum stage III–IV gametocytes; test: P. falciparum gametocyte viability assay (MitoTracker, flow cytometry), stage III-IV; format: cell-based, Plasmodium falciparum; settings: 48 h; for Gametocyte stage III-IV viability, percentage of control: listed as BC9B
Protocol: Gametocyte assays commenced seven days (stage III–IV) or ten days (stage V) post-invasion. […]
Plasmodium falciparum Gametocyte Viability Assays:
Asexual P. falciparum parasites were induced to form gametocytes as described (21).
Synchronized trophozoite-stage parasites at 2% parasitaemia were incubated overnight and […]
haematocrit maintained at 4%. On the subsequent day (designated as day 0) of gametocytogenesis, the culture containing early ring-stage parasites was first purified by sorbitol synchronisation to remove asynchronous trophozoites, and passed through a magnetic field in a sterile MACS® column in a SuperMACSTM II magnet to remove remaining late-stage parasites or later-stage gametocytes (negative selection). The culture medium was supplemented with 50 mM N-acetyl-D-glucosamine to inhibit asexual parasite proliferation, and changed daily. Sorbitol treatment was performed on Day 1, 5, and 6 to further remove asexual parasites. Gametocytes were magnetically enriched (positive selection) in a sterile column with a SuperMACSTM II magnet and eluted in culture media with 50 mM N-acetyl-D-glucosamine. These gametocytes were incubated overnight at 37 °C under microaerophilic conditions, and purity was assessed by examination under a light microscope (400× […]
Gametocyte viability was assessed as described by Ridgway et al. (21) with modifications.
Compounds or solvent controls (DMSO) were serially diluted across 96-well plates in culture media supplemented with 50 mM N-acetyl-D-glucosamine. Culture media without compound was used as a negative control. […]
control to determine background gametocyte fluorescence. Stage III-IV gametocytes (Day 7) or stage V (day 10) gametocytes were concentrated and added to the plate with 200 µL per well. The plate was incubated for 48 hours at 37 °C under humid microaerophilic conditions.
Parasites were then stained with 500 nM MitoTrackerTM Deep Red FM and 5 μg/ml Hoechst […]
cytometer as described above. […]
excluded. Live (positive) and dead (negative) gametocytes were differentiated by […]
percentage of each was calculated. […]

[4] = system: human foreskin fibroblasts (HFF); test: Human foreskin fibroblast growth inhibition assay (SYBR Safe); format: cell-based; settings: Homo sapiens, Fibroblast; 72 h, HFF; read-out: IC50, human fibroblast growth inhibition
Protocol: HFF cell growth inhibition assays commenced by adding 5000 cells to each well of a 96-well plate. 10 µg/mL cycloheximide was used as a no-growth control. DNA replication (indicating growth) was measured at the specified time using SYBR Safe DNA Gel Stain (Invitrogen 33102) and a fluorescence microplate reader. […]
Human Foreskin Fibroblast Growth Inhibition Assays:
The HFF cell line was maintained under routine culture conditions in DMEM containing 3.7 g/L NaHCO3 supplemented with 10% v/v newborn calf serum (NCS), 50 units/mL penicillin, 50 μg/mL streptomycin, 10 μg/mL gentamicin, 0.25 μg/mL amphotericin B, and 0.2 mM L-glutamine at 37 °C in a humidified 5% CO2 incubator. […]
HFF cells were detached from a flask using 0.25% Trypsin with 0.2 g/L EDTA (Sigma T4049) and washed with culture media. Cells were incubated with a serial dilution of each compound, or media/DMSO alone. Cycloheximide at 10 µg/mL was used as a positive control to determine background fluorescence. Approximately 5 000 cells were seeded in each well. Plates were incubated at 37 °C for 72 hours (until reaching confluency) and the media was removed. Plates were transferred to a -18 °C freezer. Plates were thawed and SYBR Safe DNA Gel Stain (final concentration 1/10,000) diluted in lysis buffer (as above) was added. Fluorescence was read at 490 nm excitation/ 520 nm emission on a FLUOstar Optima fluorescence plate reader. […]

COc1cc(NC(C)CCCNC(=O)CCC(=O)OC(C)C)c2ncccc2c1 (stereo not shown) [PQ-link]
IC50 [1]: 27.1 µM | Huh7 viability, dose-response data points (Figure 3F) ([2]; 0.015241580 uM, 0.0152416 µM): 107.3 and 97.91 and 99.21 and 88.27 and 85.99 and 85.17 and 77.48 and 99.67 and 102.9 | Huh7 viability, dose-response data points (Figure 3F) ([2]; 0.045724740 uM, 0.0457247 µM): 101.4 (2×) and 102.9 and 96.11 and 84.48 and 82.6 and 86.76 and 77.19 and 99.77 | Huh7 viability, dose-response data points (Figure 3F) ([2]; 0.137174210 uM, 0.137174 µM): 100.3 and 97.53 and 89.5 and 87.16 and 86.15 and 91.05 and 98.93 and 94.82 | Huh7 viability, dose-response data points (Figure 3F) ([2]; 0.411522630 uM, 0.411523 µM): 98.17 and 99.16 and 96.93 and 83.82 and 84.25 and 87.07 and 70.92 and 100.4 and 90.7 | Huh7 viability, dose-response data points (Figure 3F) ([2]; 1.234567900 uM, 1.23457 µM): 106.4 and 97.98 and 99.19 and 82.25 and 86.23 and 90.4 and 72.24 and 83.96 and 96.58 | Huh7 viability, dose-response data points (Figure 3F) ([2]; 3.703703700 uM, 3.7037 µM): 96.27 and 98.44 and 90.47 and 77.12 and 78.19 and 82.37 and 76.62 and 90.94 and 92.11 | Huh7 viability, dose-response data points (Figure 3F) ([2]; 11.111111100 uM, 11.1111 µM): 98.42 and 95.99 and 90.47 and 70.14 and 68.57 and 67.94 and 56.41 and 72.23 and 71.76 | Huh7 viability, dose-response data points (Figure 3F) ([2]; 33.333333300 uM, 33.3333 µM): 79.4 and 75.47 and 83.67 and 39.88 and 39.61 and 43.08 and 30.62 and 36.38 and 34.72 | Huh7 viability, dose-response data points (Figure 3F) ([2]; 100.000000000 uM): 33.18 and 40.69 and 39.77 and 19.19 and 19.87 and 20.01 and 9.61 and 11.04 and 10.16 | IC50 ([2]; Homo sapiens, Huh-7, 48 h, Huh7, read-out: IC50, human hepatoma inhibition (viability)): 32.8 µM | Gametocyte stage III-IV viability, percentage of control ([3]; 3.125000000 uM, replicate values, source data Fig. 2C, 3.125 µM): 95.52% (2×) and 103.7% and 98.94% and 103.3% and 102% and 98.19% and 98.79% and 101.3% and 100.5% and 109.4% | Gametocyte stage III-IV viability, percentage of control ([3]; 6.250000000 uM, replicate values, source data Fig. 2C, 6.25 µM): 103.3% and 99.89% and 101.1% and 100.9% and 104.1% and 103.4% and 100.6% and 98.59% and 102.7% and 100.3% and 94.88% | Gametocyte stage III-IV viability, percentage of control ([3]; 12.500000000 uM, replicate values, source data Fig. 2C, 12.5 µM): 96% and 94.38% and 101.5% and 100.5% and 100.7% and 100.4% and 98.39% (2×) and 102.7% and 98.65% and 95.96% | Gametocyte stage III-IV viability, percentage of control ([3]; 25.000000000 uM, replicate values, source data Fig. 2C): 93.41% and 97.62% and 99.34% and 95.75% and 97.14% and 99.2% and 97.59% and 96.58% and 96.77% and 92.46% and 91.11% | Gametocyte stage III-IV viability, percentage of control ([3]; 50.000000000 uM, replicate values, source data Fig. 2C): 83.69% and 82.72% and 92.56% and 88.38% and 90.37% and 90.15% and 87.94% (2×) and 83.57% and 86.8% and 83.3% | Gametocyte stage III-IV viability, percentage of control ([3]; 100.000000000 uM, replicate values, source data Fig. 2C): 63.1% and 60.41% and 65.29% and 78% and 74.98% and 78.2% and 65.68% and 65.48% and 64.86% and 59.49% and 56.77% and 63.58% | Gametocyte stage III-IV viability, percentage of control ([3]; 200.000000000 uM, replicate values, source data Fig. 2C): 0.3329% and -3.262% and -3.462% and -33.89% and -33.85% and -34.28% and -34.3% and -33.84% and -35.23% | viability at 3.125 µM ([3]; Plasmodium falciparum, 3.125000000 uM, replicate values, source data Fig. 2C, read-out: Gametocyte stage III-IV viability, percentage of control): 97.8% | viability at 6.25 µM ([3]; Plasmodium falciparum, 6.250000000 uM, replicate values, source data Fig. 2C, read-out: Gametocyte stage III-IV viability, percentage of control): 100% | viability at 12.5 µM ([3]; Plasmodium falciparum, 12.500000000 uM, replicate values, source data Fig. 2C, read-out: Gametocyte stage III-IV viability, percentage of control): 94.9% | viability at 25 µM ([3]; Plasmodium falciparum, 25.000000000 uM, replicate values, source data Fig. 2C, read-out: Gametocyte stage III-IV viability, percentage of control): 92.1% | viability at 50 µM ([3]; Plasmodium falciparum, 50.000000000 uM, replicate values, source data Fig. 2C, read-out: Gametocyte stage III-IV viability, percentage of control): 82.6% | IC50 ([3]; Plasmodium falciparum, read-out: IC50, P. falciparum gametocyte stage III-IV inhibition): 103 µM | IC50 [4]: 98.2 µM
